Laboratory results as given in patent EP0241618A2, “Phenyl ethanol amine derivative for use as an oncolytic medicament” (ELI LILLY AND COMPANY, priority 1985, dated 1987).

What was measured:
[1] = system: Chinese hamster ovary cells; test: Cell cycle accumulation in cells grown in low calcium medium; type: cell-based
Description: (§1) The potent oncolytic activity of the compound to be employed in the present method of treatment has been established in standard tests designed to evaluate antitumor activity. […] The effect on spindle; microtubules appears to reflect a specific effect on the microtubule organizing center of the spindle, i.e., the centrosomes. These studies have been documented by immunofluorescent light microscopy, transmission electron microscopy and flow cytometric techniques. […] In cell culture, the compound has antimitotic activity at 2.5 u.g/ml and affects mitochondrial function at 0.01 u.g/ml as measured by alterations in Rhodamine 123 binding.

Colon Carcinoma-26 = test: In vivo tumor growth inhibition, delayed treatment of established tumor in mice; settings: I.V. injection twice daily for five days, 3 days delay following inoculation
Experimental: (§2) The compound of the above example has been extensively evaluated for oncolytic activity in in vivo laboratory studies. In a typical experiment, laboratory mice were infected by subcutaneous implantation of a tumor tissue in the axillary region of the body. The implantations were accomplished by means of a trocar. Initial tumor size in each animal generally was about 2 square millimeters. Control animals received saline. Tumors were measured using vernier calipers (length and width in mm) following a specified period of treatment. The length and width measurements were converted to tumor weight by the formula: • The percent inhibition of tumor growth was then calculated for each dose level at which the compound was evaluated. Typical tumor systems implanted and against which the compound was evaluated include the CA-755 strain of adenocarcinoma, the M-5 ovarian carcinoma, the 6C3HED lymphosarcoma, the X-5563 plasma cell myeloma, the Lewis lung carcinoma, colon carcinoma-26, and C3H mammary adenocarcinoma.
(§3) Table II presents the results of studies carried out substantially as described above, except the treatment regimens were delayed for a short period following inoculation to permit the tumor to become established and start growing. Treatment consisted of I.V. injection of 02 ml of the appropriate amount of R-N-(2-phenyl-2-hydroxyethyl)-1,1-dimethyl-3-(4-aminocarbonylphenyl)propylamine hydrochloride in 5% aqueous saline twice daily for five days. Tumors were then measured as described above and compared with untreated controls.

M-5 Ovarian Carcinoma = test: as above; settings: I.V. injection twice daily for five days, 5 days delay following inoculation
Experimental: as §2, §3

cytoplasmic microtubules = test: Cell biology studies of microtubules (immunofluorescent light microscopy, transmission electron microscopy, flow cytometry); type: cell-based; settings: appears to affect only the spindle microtubules
Description: as §1

6C3HED Lymphosarcoma = test: In vivo tumor growth inhibition, subcutaneously implanted tumor in mice; settings: intravenous injection twice daily for five days, started the day following inoculation
Experimental: as §2
(§4) Each test group consisted of ten mice. R-N-(2-phenyl-2-hydroxyethyl)-1,i-dimethyl-3-(4-aminocarbonylphenyl)propylamine hydrochloride was dissolved in 5% aqueous saline and administered twice daily for five days as a 0.2 ml intravenous injection. Treatment was initiated on the day following inoculation of the test animals.

[2] = system: C3H Mammary Adenocarcinoma; test: as above; settings: intravenous injection twice daily for five days, started the day following inoculation
Experimental: as §2, §4

Lewis Lung Carcinoma = test: as above; settings: intravenous injection twice daily for five days, started the day following inoculation
Experimental: as §2, §4

CA-755 Adenocarcinoma = test: as above; settings: intravenous injection twice daily for five days, started the day following inoculation
Experimental: as §2, §4

[3] = system: X-5563 Plasma Cell Myeloma; test: as above; settings: intravenous injection twice daily for five days, started the day following inoculation
Experimental: as §2, §4

cell culture = test: Antimitotic activity in cell culture; type: cell-based; settings: concentration at which activity is seen
Description: as §1

Q: How did the S-phase accumulation [1] turn out when CC(C)(CCc1ccc(C(N)=O)cc1)NC[C@H](O)c1ccccc1.Cl [Compound, R-N-(2-phenyl-2-hydroxyethyl)-1,1-dimethyl-3-(4-aminocarbonylphenyl)propylamine hydrochloride] was run?
A: causes an S-phase accumulation

Q: What about the “% Inhibition” value (Colon Carcinoma-26; Dose 20 (mg/ml)) of the same molecule?
A: 30%

Q: And the “Deaths/total mice in group” value (Colon Carcinoma-26; Dose 20 (mg/ml))?
A: 0/10

Q: And the “% Inhibition” value (Colon Carcinoma-26; Dose 40 (mg/ml))?
A: 61%

Q: What about the “Deaths/total mice in group” value (Colon Carcinoma-26; Dose 40 (mg/ml)) of the same molecule?
A: 1/10

Q: And the “% Inhibition” value (Colon Carcinoma-26; Dose 80 (mg/ml))?
A: 64%

Q: And the “Deaths/total mice in group” value (Colon Carcinoma-26; Dose 80 (mg/ml))?
A: 4/9

Q: And the “% Inhibition” value (M-5 Ovarian Carcinoma; Dose 20 (mg/ml))?
A: 40%

Q: And the “Deaths/total mice in group” value (M-5 Ovarian Carcinoma; Dose 20 (mg/ml))?
A: 0/10

Q: What about the “% Inhibition” value (M-5 Ovarian Carcinoma; Dose 40 (mg/ml)) of the same molecule?
A: 61%

Q: And the “Deaths/total mice in group” value (M-5 Ovarian Carcinoma; Dose 40 (mg/ml))?
A: 0/10

Q: And the “% Inhibition” value (M-5 Ovarian Carcinoma; Dose 80 (mg/ml))?
A: 81%

Q: And the “Deaths/total mice in group” value (M-5 Ovarian Carcinoma; Dose 80 (mg/ml))?
A: 0/10

Q: What about the “effect on cytoplasmic microtubules” value (cytoplasmic microtubules) of the same molecule?
A: no apparent effect

Q: And the “% Inhibition” value (6C3HED Lymphosarcoma; Dose 20 mg/kg)?
A: 11%

Q: And the “% Inhibition” value (6C3HED Lymphosarcoma; Dose 40 mg/kg)?
A: 9%

Q: And the “% Inhibition” value (6C3HED Lymphosarcoma; Dose 80 mg/kg)?
A: 23%

Q: And the “% Inhibition” value ([2]; Dose 20 mg/kg)?
A: 57%

Q: What about the “% Inhibition” value ([2]; Dose 40 mg/kg) of the same molecule?
A: 95%

Q: And the “% Inhibition” value ([2]; Dose 80 mg/kg)?
A: 96%

Q: And the “% Inhibition” value (Lewis Lung Carcinoma; Dose 20 mg/kg)?
A: 35%

Q: What about the “% Inhibition” value (Lewis Lung Carcinoma; Dose 40 mg/kg) of the same molecule?
A: 68%

Q: What about the “% Inhibition” value (Lewis Lung Carcinoma; Dose 80 mg/kg) of the same molecule?
A: 81%

Q: And the “% Inhibition” value (CA-755 Adenocarcinoma; Dose 10 mg/kg)?
A: 79%

Q: And the “% Inhibition” value (CA-755 Adenocarcinoma; Dose 20 mg/kg)?
A: 95%

Q: What about the “% Inhibition” value (CA-755 Adenocarcinoma; Dose 40 mg/kg) of the same molecule?
A: 92%

Q: What about the “% Inhibition” value (CA-755 Adenocarcinoma; Dose 80 mg/kg) of the same molecule?
A: 95%

Q: And the “% Inhibition” value ([3]; Dose 20 mg/kg)?
A: 29%

Q: And the “% Inhibition” value ([3]; Dose 40 mg/kg)?
A: 21%

Q: And the “% Inhibition” value ([3]; Dose 80 mg/kg)?
A: 65%

Q: What about the minimal effective concentration (cell culture) of the same molecule?
A: 2.5 µg/mL
